{"source": "patent US6706663B2", "about": "“Herbicidal 3-heterocyclic substituted benzisothiazole and benzisoxazole compounds” (Wyeth, priority 2000, dated 2004)", "key": {"[1]": {"test_system": "ABUTH (Abutilon theophrasti)", "assay": "Postemergence herbicidal evaluation", "type": "in vivo, Medic.", "how_it_was_run": "(§1)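 Seedlings grown for about two weeks were sprayed postemergence and then kept under standard greenhouse care. Injury was rated visually 4–5 weeks after treatment on a 0–9 scale against untreated controls, and ratings from repeat tests were averaged.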"}, "[2]": {"test_system": "CASOB (Cassia obtusifolia)", "assay": "Preemergence herbicidal evaluation", "type": "in vivo, L.", "conditions": "preemergence, rated 4-5 weeks after treatment", "how_it_was_run": "(§2)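 Seeds mixed with potting soil were planted atop about one inch of soil, then sprayed with test compound in aqueous acetone. Cups were kept in the greenhouse and rated visually 4–5 weeks after treatment on a 0–9 scale against untreated control.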"}, "[3]": {"test_system": "AMBEL (Ambrosia artemisifolia)", "assay": "Preemergence herbicidal evaluation", "type": "in vivo, L.", "conditions": "preemergence, rated 4-5 weeks after treatment", "how_it_was_run": "as §2"}, "[4]": {"test_system": "CHEAL (Chenopodium album)", "assay": "Preemergence herbicidal evaluation", "type": "in vivo, L.", "conditions": "preemergence, rated 4-5 weeks after treatment", "how_it_was_run": "as §2"}, "ORYSAT (Rice, Tebonnet) [5]": {"test_system": "ORYSAT (Rice, Tebonnet)", "assay": "Preemergence herbicidal evaluation", "type": "in vivo, Oryza sativa, (L.) Tebonnet", "conditions": "preemergence, rated 4-5 weeks after treatment"}, "[6]": {"test_system": "TRZAWR (Wheat, Winter, cv Riband)", "assay": "Preemergence herbicidal evaluation", "type": "in vivo, Triticum aestivum", "conditions": "preemergence, rated 4-5 weeks after treatment", "how_it_was_run": "as §2"}, "[7]": {"test_system": "ABUTH (Abutilon theophrasti)", "assay": "Preemergence herbicidal evaluation", "type": "in vivo, Medic.", "conditions": "preemergence, rated 4-5 weeks after treatment"}, "ZEAMX (Corn, Field)": {"test_system": "ZEAMX (Corn, Field)", "assay": "Postemergence herbicidal evaluation", "type": "in vivo, Zea mays, L.", "how_it_was_run": "as §1"}, "[8]": {"test_system": "TRZAWR (Wheat, Winter, cv Riband)", "assay": "Postemergence herbicidal evaluation", "type": "in vivo, Triticum aestivum", "how_it_was_run": "as §1"}, "ORYSAT (Rice, Tebonnet) [9]": {"test_system": "ORYSAT (Rice, Tebonnet)", "assay": "Flooded paddy, post-transplant rice tolerance", "type": "in vivo, Oryza sativa, (L.) Tebonnet", "conditions": "flooded paddy, post-transplant rice, rated 3-4 weeks after treatment, 0-9 rating scale", "how_it_was_run": "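Scores (0-9) reflect visual injury relative to untreated plants in flooded silt loam. Each pot held two transplanted ten-day-old seedlings under 1.5 to 3 cm standing water in the greenhouse.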"}, "[10]": {"test_system": "ECHCG (Echinochloa crus-galli)", "assay": "Postemergence herbicidal evaluation", "type": "in vivo, (L.) Beau", "how_it_was_run": "as §1"}, "[11]": {"test_system": "ECHORC (Echinochloa oryzoides)", "assay": "Flooded paddy, preemergence weed control", "type": "in vivo, Echinochloa oryzoides (Ard.) Fritsch.", "conditions": "rated 3-4 weeks after treatment, 0-9 rating scale", "how_it_was_run": "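Plants were established from seed or propagating organs in flooded silt loam, with the water surface held 1.5 to 3 cm above the soil for the entire experiment. Injury was assessed visually against a control and given a 0-9 score.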"}, "ORYSAT (Rice, Tebonnet) [12]": {"test_system": "ORYSAT (Rice, Tebonnet)", "assay": "Postemergence herbicidal evaluation", "type": "in vivo, Oryza sativa, (L.) Tebonnet", "how_it_was_run": "as §1"}, "[13]": {"test_system": "CYPSE (Cyperus serotinus)", "assay": "Flooded paddy, preemergence weed control", "type": "in vivo, Rottb.", "conditions": "rated 3-4 weeks after treatment, 0-9 rating scale", "how_it_was_run": "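Seeds or propagules were planted 0.5 cm deep in silt loam and flooded to 1.5–3 cm. Compounds in 50/50 v/v aqueous/acetone were pipetted into the flood water at about 0.0080 to 0.1250 kg/ha. After 3–4 weeks in the greenhouse, effect was rated visually on a 0–9 scale versus untreated control.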"}, "[14]": {"test_system": "CASOB (Cassia obtusifolia)", "assay": "Postemergence herbicidal evaluation", "type": "in vivo, L.", "how_it_was_run": "as §1"}, "[15]": {"test_system": "AMBEL (Ambrosia artemisifolia)", "assay": "Postemergence herbicidal evaluation", "type": "in vivo, L.", "how_it_was_run": "as §1"}, "[16]": {"test_system": "CHEAL (Chenopodium album)", "assay": "Postemergence herbicidal evaluation", "type": "in vivo, L.", "how_it_was_run": "as §1"}, "[17]": {"test_system": "IPOHE (Ipomoea hederacea)", "assay": "Postemergence herbicidal evaluation", "type": "in vivo, (L.) Jacq.", "how_it_was_run": "as §1"}}, "data": [{"smiles": "Cc1ccc(-c2nsc3ccc(N4C(=O)C5=C(CCCC5)C4=O)cc23)s1", "note": "[Compound 20, N-[3-(5-methyl-2-thienyl)-1,2-benzisothiazol-5-yl]-1-cyclohexene-1,2-dicarboximide]", "values": [{"measurement": "Postemergence herbicidal rating, ABUTH", "setting": "[1]; rate 0.0320 kg/ha", "result": 7.0}, {"measurement": "Postemergence herbicidal rating, ABUTH", "setting": "[1]; rate 0.0620 kg/ha", "result": 9.0}, {"measurement": "Postemergence herbicidal rating, ABUTH", "setting": "[1]; rate 0.1250 kg/ha", "result": 9.0}, {"measurement": "CASOB preemergence herbicidal rating", "setting": "[2]; Rate 0.0620 kg/ha", "result": 0.0}, {"measurement": "CASOB preemergence herbicidal rating", "setting": "[2]; Rate 0.1250 kg/ha", "result": 0.0}, {"measurement": "CASOB preemergence herbicidal rating", "setting": "[2]; Rate 0.2500 kg/ha", "result": 2.0}, {"measurement": "AMBEL preemergence herbicidal rating", "setting": "[3]; Rate 0.0620 kg/ha", "result": 0.0}, {"measurement": "AMBEL preemergence herbicidal rating", "setting": "[3]; Rate 0.1250 kg/ha", "result": 1.0}, {"measurement": "AMBEL preemergence herbicidal rating", "setting": "[3]; Rate 0.2500 kg/ha", "result": 2.0}, {"measurement": "CHEAL preemergence herbicidal rating", "setting": "[4]; Rate 0.0620 kg/ha", "result": 0.0}, {"measurement": "CHEAL preemergence herbicidal rating", "setting": "[4]; Rate 0.1250 kg/ha", "result": 2.0}, {"measurement": "CHEAL preemergence herbicidal rating", "setting": "[4]; Rate 0.2500 kg/ha", "result": 3.0}, {"measurement": "ORYSAT preemergence herbicidal rating", "setting": "ORYSAT (Rice, Tebonnet) [5]; Rate 0.0620 kg/ha", "result": 0.0}, {"measurement": "ORYSAT preemergence herbicidal rating", "setting": "ORYSAT (Rice, Tebonnet) [5]; Rate 0.1250 kg/ha", "result": 0.0}, {"measurement": "ORYSAT preemergence herbicidal rating", "setting": "ORYSAT (Rice, Tebonnet) [5]; Rate 0.2500 kg/ha", "result": 0.0}, {"measurement": "TRZAWR preemergence herbicidal rating", "setting": "[6]; Rate 0.0620 kg/ha", "result": 0.0}, {"measurement": "TRZAWR preemergence herbicidal rating", "setting": "[6]; Rate 0.1250 kg/ha", "result": 0.0}, {"measurement": "TRZAWR preemergence herbicidal rating", "setting": "[6]; Rate 0.2500 kg/ha", "result": 0.0}, {"measurement": "ABUTH preemergence herbicidal rating", "setting": "[7]; Rate 0.0620 kg/ha", "result": 1.0}, {"measurement": "ABUTH preemergence herbicidal rating", "setting": "[7]; Rate 0.1250 kg/ha", "result": 2.0}, {"measurement": "ABUTH preemergence herbicidal rating", "setting": "[7]; Rate 0.2500 kg/ha", "result": 4.0}, {"measurement": "Postemergence herbicidal rating, ZEAMX", "setting": "ZEAMX (Corn, Field); rate 0.0320 kg/ha", "result": 5.0}, {"measurement": "Postemergence herbicidal rating, ZEAMX", "setting": "ZEAMX (Corn, Field); rate 0.0620 kg/ha", "result": 5.0}, {"measurement": "Postemergence herbicidal rating, ZEAMX", "setting": "ZEAMX (Corn, Field); rate 0.1250 kg/ha", "result": 5.5}, {"measurement": "Postemergence herbicidal rating, TRZAWR", "setting": "[8]; rate 0.0320 kg/ha", "result": 3.5}, {"measurement": "Postemergence herbicidal rating, TRZAWR", "setting": "[8]; rate 0.0620 kg/ha", "result": 4.0}, {"measurement": "Postemergence herbicidal rating, TRZAWR", "setting": "[8]; rate 0.1250 kg/ha", "result": 4.5}, {"measurement": "herbicidal rating, ORYSAT (rice tolerance)", "setting": "ORYSAT (Rice, Tebonnet) [9]; rate 0.0320 kg/ha", "result": 2.0}, {"measurement": "herbicidal rating, ORYSAT (rice tolerance)", "setting": "ORYSAT (Rice, Tebonnet) [9]; rate 0.1250 kg/ha", "result": 2.0}, {"measurement": "Postemergence herbicidal rating, ECHCG", "setting": "[10]; rate 0.0320 kg/ha", "result": 1.0}, {"measurement": "Postemergence herbicidal rating, ECHCG", "setting": "[10]; rate 0.0620 kg/ha", "result": 1.0}, {"measurement": "Postemergence herbicidal rating, ECHCG", "setting": "[10]; rate 0.1250 kg/ha", "result": 1.0}, {"measurement": "herbicidal rating, ECHORC", "setting": "[11]; rate 0.0320 kg/ha", "result": 5.0}, {"measurement": "herbicidal rating, ECHORC", "setting": "[11]; rate 0.1250 kg/ha", "result": 7.0}, {"measurement": "Postemergence herbicidal rating, ORYSAT", "setting": "ORYSAT (Rice, Tebonnet) [12]; rate 0.0320 kg/ha", "result": 2.5}, {"measurement": "Postemergence herbicidal rating, ORYSAT", "setting": "ORYSAT (Rice, Tebonnet) [12]; rate 0.0620 kg/ha", "result": 3.0}, {"measurement": "Postemergence herbicidal rating, ORYSAT", "setting": "ORYSAT (Rice, Tebonnet) [12]; rate 0.1250 kg/ha", "result": 4.5}, {"measurement": "herbicidal rating, CYPSE", "setting": "[13]; rate 0.0320 kg/ha", "result": 4.0}, {"measurement": "herbicidal rating, CYPSE", "setting": "[13]; rate 0.1250 kg/ha", "result": 7.0}, {"measurement": "Postemergence herbicidal rating, CASOB", "setting": "[14]; rate 0.0320 kg/ha", "result": 1.0}, {"measurement": "Postemergence herbicidal rating, CASOB", "setting": "[14]; rate 0.0620 kg/ha", "result": 1.0}, {"measurement": "Postemergence herbicidal rating, CASOB", "setting": "[14]; rate 0.1250 kg/ha", "result": 1.0}, {"measurement": "Postemergence herbicidal rating, AMBEL", "setting": "[15]; rate 0.0320 kg/ha", "result": 6.0}, {"measurement": "Postemergence herbicidal rating, AMBEL", "setting": "[15]; rate 0.0620 kg/ha", "result": 6.0}, {"measurement": "Postemergence herbicidal rating, AMBEL", "setting": "[15]; rate 0.1250 kg/ha", "result": 9.0}, {"measurement": "Postemergence herbicidal rating, CHEAL", "setting": "[16]; rate 0.0320 kg/ha", "result": 3.0}, {"measurement": "Postemergence herbicidal rating, CHEAL", "setting": "[16]; rate 0.0620 kg/ha", "result": 5.0}, {"measurement": "Postemergence herbicidal rating, CHEAL", "setting": "[16]; rate 0.1250 kg/ha", "result": 5.0}, {"measurement": "Postemergence herbicidal rating, IPOHE", "setting": "[17]; rate 0.0320 kg/ha", "result": 6.0}, {"measurement": "Postemergence herbicidal rating, IPOHE", "setting": "[17]; rate 0.0620 kg/ha", "result": 9.0}, {"measurement": "Postemergence herbicidal rating, IPOHE", "setting": "[17]; rate 0.1250 kg/ha", "result": 9.0}]}]}
